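48-hour exposure; five concentrations; linearly interpolated endpoints. TGI marks complete inhibition of growth.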
Tests used:
Experiment in all cases: DTP human tumour cell line panel, 48 h
OVCAR-4 ovarian = test system: OVCAR-4 ovarian
SK-MEL-2 melanoma = test system: SK-MEL-2 melanoma
U251 CNS = test system: U251 CNS
UACC-62 melanoma = test system: UACC-62 melanoma
UACC-257 melanoma = test system: UACC-257 melanoma
MOLT-4 leukemia = test system: MOLT-4 leukemia
HT29 colon = test system: HT29 colon
OVCAR-5 ovarian = test system: OVCAR-5 ovarian
HL-60(TB) leukemia = test system: HL-60(TB) leukemia
TK-10 renal = test system: TK-10 renal
SNB-75 CNS = test system: SNB-75 CNS
HOP-62 NSCLC = test system: HOP-62 NSCLC
HOP-92 NSCLC = test system: HOP-92 NSCLC
SN12C renal = test system: SN12C renal
SF-539 CNS = test system: SF-539 CNS
CCRF-CEM leukemia = test system: CCRF-CEM leukemia
EKVX NSCLC = test system: EKVX NSCLC
SW-620 colon = test system: SW-620 colon
NCI-H460 lung = test system: NCI-H460 lung
K-562 leukemia = test system: K-562 leukemia

Row | SMILES | TGI (OVCAR-4 ovarian) [µM] | TGI (SK-MEL-2 melanoma) [µM] | TGI (U251 CNS) [µM] | TGI (UACC-62 melanoma) [µM] | TGI (UACC-257 melanoma) [µM] | TGI (MOLT-4 leukemia) [µM] | TGI (HT29 colon) [µM] | TGI (OVCAR-5 ovarian) [µM] | TGI (HL-60(TB) leukemia) [µM] | TGI (TK-10 renal) [µM] | TGI (SNB-75 CNS) [µM] | TGI (HOP-62 NSCLC) [µM] | TGI (HOP-92 NSCLC) [µM] | TGI (SN12C renal) [µM] | TGI (SF-539 CNS) [µM] | TGI (CCRF-CEM leukemia) [µM] | TGI (EKVX NSCLC) [µM] | TGI (SW-620 colon) [µM] | TGI (NCI-H460 lung) [µM] | TGI (K-562 leukemia) [µM]
1 | c1ccc(N2N=C3N(c4ccccc4)C2N3c2ccccc2)cc1 | > 100 | 73 | > 100 | 80.2 | 55 | 62.5 | > 100 | > 100 | > 100 | > 100 | 64.5 | > 100 | 60.8 | > 100 | 74.9 | 71.8 | > 100 | > 100 | > 100 | 59.5
2 | CCCCn1c(C)c2c(c1C)C(=O)N(CCN1CCN(c3ccccc3Cl)CC1)C2=O | > 100 | 49 | > 100 | > 100 | 74.3 | 52.2 | 31 | > 100 | 51 | > 100 | 90.2 | 93.3 | 68.5 | 61.3 | 38 | 75.7 | > 100 | > 100 | > 100 | 92.1
3 | CC(=O)OCc1nnn2c1CCC2 | > 100 | > 100 | > 100 | > 100 | > 100 | > 100 | > 100 | > 100 | > 100 | > 100 | > 100 | > 100 | > 100 | > 100 | > 100 | > 100 | > 100 | > 100 | > 100 | > 100
